Laboratory results taken from US20100015249A1, “Antitumor agent containing 6'-amidino-2'-naphthyl 4-guanidinobenzoate or salt thereof” (priority 2005, published 2010).

How the values were obtained:
[1] = test system: human pancreas cancer cell line MDAPanc-28; experiment: DNA fragmentation assay (apoptosis); format: cell-based; details: MDAPanc-28, TNF-α 5 ng/ml 24 hours, then with or without FUT 24 hours
Description: After adding 1000 U/ml of protease K, the sample was further incubated for 5 hours at 50° C. After extracting DNA with phenol/chloroform/isoamyl alcohol, isopropanol and ammonium acetate were added to the collected water-soluble fractions in order to collect precipitates. The precipitates were then rinsed with 70% ethanol and dissolved in Tris-EDTA buffer. Electrophoresis was performed on a 2% agarose gel and DNA bands were confirmed by using ethidium bromide. The present inventors examined the concomitant effect of FUT and TNF-α on apoptosis in cancer cells. After treatment with TNF-α for 24 hours, the human pancreas cancer cell line […]-28 was further cultured for 24 hours with various concentrations of FUT being added. Cells prepared were then subjected to an MTT assay according to the method generally known to calculate the cell survival rates. Also, DNA was extracted to perform a DNA fragmentation assay. More specifically, with regard to the MTT assay, each well was seeded with 2000 cells per 100 μl of culture medium in a 96-well microtiterplate, followed by the above mentioned treatment. […] The absorbance of the samples was measured at 570 nm by using a microplate reader. […] Two independent experiments were performed, and the average was calculated. […]

[2] = test system: human pancreas cancer cell line MDAPanc-28; experiment: MTT assay of cell survival rate / living cell ratio; format: cell-based; details: MDAPanc-28, single agent, MTT
Description: The present inventors examined the concomitant effect of FUT and TNF-α on apoptosis in cancer cells. After treatment with TNF-α for 24 hours, the human pancreas cancer cell line MDAPanc-28 was further cultured for 24 hours with various concentrations of FUT being added. Cells prepared were then subjected to an MTT assay according to the method generally known to calculate the cell survival rates. Also, DNA was extracted to perform a DNA fragmentation assay.
More specifically, with regard to the MTT assay, each well was seeded with 2000 cells per 100 μl of culture medium in a 96-well microtiterplate, followed by the above mentioned treatment. After plate centrifugation, each well received 5 mg/ml of MTT (Sigma) PBS solution instead of culture medium and was incubated for 4 hours at 37° C. After removing the supernatant, 100 μl of DMSO were added to dissolve the cells. The absorbance of the samples was measured at 570 nm by using a microplate reader. 8 wells were subjected to the same condition in this experiment. Two independent experiments were performed, and the average was calculated.
However, the agents are of different types with different mechanisms of action. Therefore, the present inventors examined the effect of each agent on the living cell ratio in the human pancreas cancer cell line MDAPanc-28 singularly. After being treated with each agent for 24 hours and 48 hours, the human pancreas cancer cell line MDAPanc-28 was subjected to a MTT assay. The MTT assay was performed by the method described in Example 9.

NF-κB = experiment: Gel shift assay of gemcitabine-induced NF-κB activation; format: cell-based, human; details: MDAPanc-28, pretreatment 3 hours then gemcitabine 3 hours
Description: At the same time, the present inventors also made a comparison with the other NF-κB inhibitors PS1145 and PS341. […] Subsequently, a gel shift assay was performed to examine the effect on NF-κB activation.

[3] = test system: human pancreas cancer cell line MDAPanc-28; experiment: Apoptosis ratio by flow cytometry (propidium iodide, FACScan); format: cell-based; details: for apoptosis induction in combination with gemcitabine: MDAPanc-28, pretreatment with the agent 3 hours then gemcitabine 48 hours, compared with gemcitabine alone
Description: The present inventors next examined the effect of these agents on apoptosis induction in the human pancreas cancer cell line MDAPanc-28. […] Flow cytometry was used to confirm the occurrence of apoptosis. Cells were collected after treatments with the agents and fixed in 70% ethanol at −20° C. for 24 hours. After rinsing with PBS, cells were suspended in PBS containing 50 μg/ml of propium iodide, 0.1% Triton X-100, 0.1% sodium citrate and 1 μg/ml of DNase free RNase. The samples were incubated at room temperature for 30 minutes and the amount of DNA was measured by using FACScan.

Murine fiber cells = experiment: Effect on survival rate of normal cells; format: cell-based; details: concentrations under which apoptosis was induced in cells
Description: Therefore, the present inventors next examined the effect of FUT treatment on normal cells. Murine fiber cells were used as normal cells.

[4] = test system: human pancreas cancer cell line Panc-1; experiment: Subcutaneous Panc-1 transplant in nude mice: tumor volume and weight; format: in vivo; details: Panc-1 s.c., 6 weeks treatment, gemcitabine 100 mg/kg once a week i.p., FUT-175 30 mg/kg three times a week i.p.
Description: (§1) Tumor volume, the body weight and extirpated tumor weight were measured and pictures were taken for each group of mice.

[5] = Body weight of Panc-1 transplanted nude mice after treatment; format: in vivo; details: Panc-1 s.c., 6 weeks treatment, gemcitabine 100 mg/kg once a week i.p., FUT-175 30 mg/kg three times a week i.p.
Description: as §1

Q: Which DNA fragmentation [1] does the source give for TNF-α here?
A: The DNA fragmentation was “showed no DNA fragmentation”.

Q: For `O=C(Nc1cc(Cl)cc2c1[nH]c1cnccc12)c1cccnc1` [PS1145], which “inhibitory effect on proliferation, 24-hour treatment” value [2] is on record?
A: The value was “did not show any significant inhibitory effect”.

Q: What about the “inhibitory effect on proliferation, 48-hour treatment” value [2] of the same compound?
A: Its value is “concentration-dependent inhibitory effect on proliferation”.

Q: What about the “effect on gemcitabine-induced activation of NF-κB” value (NF-κB) of the same compound?
A: The value was “showed a similar trend”.

Q: And the “apoptosis induction in combination with gemcitabine” value [3]?
A: The value was “further enhanced the effect on apoptosis induction”.

Q: And the “survival rate of normal cells” value (Murine fiber cells)?
A: Its value is “significantly decreased the survival rate of normal cells”.

Q: Which “apoptosis induction, single agent” value ([3]; MDAPanc-28, gemcitabine alone for 48 hours) does the source give for `Nc1ccn([C@@H]2O[C@H](CO)[C@@H](O)C2(F)F)c(=O)n1` [gemcitabine] here?
A: The value was “induced apoptosis”.

Q: And the “Extirpated tumor weight, level of the control” value [4]?
A: The value was “approximately 50%”.

Q: And the “Tumor volume, level of the control” value [4]?
A: Its value is “approximately 50%”.

Q: And the “body weight of mice after administration” value [5]?
A: The value was “showed weight reduction”.

Q: For `CC(C)C[C@H](NC(=O)[C@H](Cc1ccccc1)NC(=O)c1cnccn1)B(O)O` [PS341], which “inhibitory effect on proliferation, 24-hour treatment” value [2] is on record?
A: The value was “no significant inhibitory effect on proliferation”.

Q: And the “inhibitory effect on proliferation, 48-hour treatment” value [2]?
A: The value was “no significant inhibitory effect on proliferation”.

Q: What about the “effect on gemcitabine-induced activation of NF-κB” value (NF-κB) of the same compound?
A: Its value is “showed a similar trend”.

Q: What about the “apoptosis induction in combination with gemcitabine” value [3] of the same compound?
A: The value was “further enhanced the effect on apoptosis induction”.

Q: And the “survival rate of normal cells” value (Murine fiber cells)?
A: Its value is “significantly decreased the survival rate of normal cells”.
